Results reported in US20260315612A1, “Topoisomerase Inhibitors, Methods of Making, and Methods of Use Thereof” (NJ Bio, Inc., priority 2023, published 2026).

Tested on: SKBR-3 cell line (human breast cancer)
Assay: Cytotoxicity Assay (Cell titer glo, 72 h), SKBR-3
Type: cell-based
Settings: for IC50: Homo sapiens, SK-BR-3, free payloads, 72 hours; for Normalized IC50 (PL IC50/DXD IC50): ratio of payload IC50 to DXD control IC50
Procedure: Day 1: 2,000 cells/well were plated and incubated at 37° C. overnight.
Day 2: Payload/ADC/vehicle control dilutions were made in respective media and added to cells. Volume added: 50 uL to each well. Starting treatment concentration was 1 mM for free payloads/1 μM for ADC's/10% for vehicle control and then diluted 10-fold down for a total of 11 treatment dilutions. Each concentration was analyzed in triplicates. Media-only wells were used as a control to calculate percent viability.
Day 5: Cell titer glow reagent (volume: 50 uL) was added to each well, the plate was shaken for 5 mins and the luminescence was recorded. Drug Treatment Time: 72 hours. Data Analysis: Percent viability was calculated by dividing the luminescence signal obtained for each treated well by the untreated well (media-only control) and multiplying by 100. Data was next transformed using X=Log (x) and then analyzed with nonlinear regression (curve fit), Dose Response inhibition−log (inhibitor) vs response (3 parameters) using PRISM software to determine the IC50 value.

Row | Compound | IC50 [nM] | Normalized IC50 (PL IC50/DXD IC50)
1 | CC[C@@]1(O)C(=O)OCc2c1cc1n(c2=O)Cc2c-1nc1cc(F)c(C)cc1c2Cn1cc(CNC)nn1 [Payload 6] | 690 | 94.92
2 | CC[C@@]1(O)C(=O)OCc2c1cc1n(c2=O)Cc2c-1nc1cc(F)c(C)cc1c2Cn1cc(CN2CCOC(CNC(=O)CO)C2)nn1 (stereo partly drawn) [Payload 62] | 2040 | 1714.88
3 | CC[C@@]1(O)C(=O)OCc2c1cc1n(c2=O)Cc2c-1nc1cc(F)c(C)cc1c2Cn1cc(CN2CCNCC2)nn1 [Payload 22] | 102 | 20.02
4 | CC[C@@]1(O)C(=O)OCc2c1cc1n(c2=O)Cc2c-1nc1cc(F)c(C)cc1c2Cn1cc(-c2ccc(N)nc2)nn1 [Payload 52] | 18 | 2.88
5 | CC[C@@]1(O)C(=O)OCc2c1cc1n(c2=O)Cc2c-1nc1cc(F)c(C)cc1c2Cn1cc(C(C)(C)NC(=O)CO)nn1 [Payload 69] | 95.8 | 104.13
6 | CC[C@@]1(O)C(=O)OCc2c1cc1n(c2=O)Cc2c-1nc1cc(F)c(C)cc1c2Cn1cc(-c2cccc(N)c2)nn1 [Payload 16] | 38.5 | 8.55
7 | CC[C@@]1(O)C(=O)OCc2c1cc1n(c2=O)Cc2c-1nc1cc(F)c(C)cc1c2Cn1cc(CN)nn1 [Payload 5] | 81.5 | 18.99
8 | CC[C@@]1(O)C(=O)OCc2c1cc1n(c2=O)Cc2c-1nc1cc(F)c(C)cc1c2Cn1cc(COC2CCCCO2)nn1 (stereo partly drawn) [Payload 1] | 77.8 | 8.67
9 | CC[C@@]1(O)C(=O)OCc2c1cc1n(c2=O)Cc2c-1nc1cc(F)c(C)cc1c2Cn1cc(CN2CCOC(CN)C2)nn1 (stereo partly drawn) [Payload 58] | 30.5 | 23.79
10 | CC[C@@]1(O)C(=O)OCc2c1cc1n(c2=O)Cc2c-1nc1cc(F)c(C)cc1c2Cn1nncc1CNC [Payload 9] | 94.6 | 13.01
11 | CC[C@@]1(O)C(=O)OCc2c1cc1n(c2=O)Cc2c-1nc1cc(F)c(C)cc1c2Cn1cc(CCO)nn1 [Payload 39] | 4.63 | 0.92
12 | CC[C@@]1(O)C(=O)OCc2c1cc1n(c2=O)Cc2c-1nc1cc(F)c(C)cc1c2Cn1cc(-c2cccc(N)n2)nn1 [Payload 48] | 40.2 | –
13 | CC[C@@]1(O)C(=O)OCc2c1cc1n(c2=O)Cc2c-1nc1cc(F)c(C)cc1c2Cn1cc(CN2CCC(CO)CC2)nn1 [Payload 23] | 1250 | 199.52
14 | CC[C@@]1(O)C(=O)OCc2c1cc1n(c2=O)Cc2c-1nc1cc(F)c(C)cc1c2Cn1cc(C(C)O)nn1 (stereo partly drawn) [Payload 11] | 194 | 45.22
15 | CC[C@@]1(O)C(=O)OCc2c1cc1n(c2=O)Cc2c-1nc1cc(F)c(C)cc1c2Cn1cc(-c2ccccc2NC(=O)CN)nn1 [Payload 66] | 54.7 | 3.58
16 | CC[C@@]1(O)C(=O)OCc2c1cc1n(c2=O)Cc2c-1nc1cc(F)c(C)cc1c2Cn1cc(CO)nn1 [Payload 2] | 80.9 | 9.01
17 | CC[C@@]1(O)C(=O)OCc2c1cc1n(c2=O)Cc2c-1nc1cc(F)c(C)cc1c2Cn1cc(CCCNC(=O)CO)nn1 [Payload 68] | 17.6 | 19.01
18 | CC[C@@]1(O)C(=O)OCc2c1cc1n(c2=O)Cc2c-1nc1cc(F)c(C)cc1c2Cn1cc(C2CCCN2)nn1 (stereo partly drawn) [Payload 57] | 18.3 | 12.80
19 | CC[C@@]1(O)C(=O)OCc2c1cc1n(c2=O)Cc2c-1nc1cc(F)c(C)cc1c2Cn1cc(-c2ccccc2N)nn1 [Payload 19] | 22.4 | 4.96
20 | CC[C@@]1(O)C(=O)OCc2c1cc1n(c2=O)Cc2c-1nc1cc(F)c(C)cc1c2Cn1cc(C2(N)CC2)nn1 [Payload 47] | 33.2 | 4.86
21 | CC[C@@]1(O)C(=O)OCc2c1cc1n(c2=O)Cc2c-1nc1cc(F)c(C)cc1c2Cn1cc(-c2ccc(N)cc2)nn1 [Payload 13] | 30.8 | 6.84
22 | CC[C@@]1(O)C(=O)OCc2c1cc1n(c2=O)Cc2c-1nc1cc(F)c(C)cc1c2Cn1cc(CN2CCCCC2CO)nn1 (stereo partly drawn) [Payload 54] | 8.94 | 6.24
23 | CC[C@@]1(O)C(=O)OCc2c1cc1n(c2=O)Cc2c-1nc1cc(F)c(C)cc1c2Cn1cc(CNC(=O)OC(C)(C)C)nn1 [Payload 4] | 126 | 14.03
24 | CC[C@@]1(O)C(=O)OCc2c1cc1n(c2=O)Cc2c-1nc1cc(F)c(C)cc1c2Cn1cc(CCNC)nn1 [Payload 37] | 50.8 | 3.32

Row | Compound | IC50 [nM] | Normalized IC50 (PL IC50/DXD IC50)
25 | CC[C@@]1(O)C(=O)OCc2c1cc1n(c2=O)Cc2c-1nc1cc(F)c(C)cc1c2Cn1cc(CCNC(=O)CO)nn1 [Payload 38] | 34.6 | 37.23
26 | CC[C@@]1(O)C(=O)OCc2c1cc1n(c2=O)Cc2c-1nc1cc(F)c(C)cc1c2Cn1cc(-c2cc(F)cnc2N)nn1 [Payload 46] | 3.68 | 0.24
27 | CC[C@@]1(O)C(=O)OCc2c1cc1n(c2=O)Cc2c-1nc1cc(F)c(C)cc1c2Cn1cc(CCCO)nn1 [Payload 59] | 4.03 | 4.84
28 | CC[C@@]1(O)C(=O)OCc2c1cc1n(c2=O)Cc2c-1nc1cc(F)c(C)cc1c2Cn1cc(-c2ccc(NC(=O)CN)cc2)nn1 [Payload 67] | 9.15 | 0.60
29 | CC[C@@]1(O)C(=O)OCc2c1cc1n(c2=O)Cc2c-1nc1cc(F)c(C)cc1c2Cn1cc(CCCN)nn1 [Payload 53] | 18 | 3.60
30 | CC[C@@]1(O)C(=O)OCc2c1cc1n(c2=O)Cc2c-1nc1cc(F)c(C)cc1c2Cn1cc(CN2CCN(C(=O)CO)CC2)nn1 [Payload 60] | 284 | 338.2
31 | CC[C@@]1(O)C(=O)OCc2c1cc1n(c2=O)Cc2c-1nc1cc(F)c(C)cc1c2Cn1nncc1CN [Payload 8] | 16.5 | 1.84
32 | CC[C@@]1(O)C(=O)OCc2c1cc1n(c2=O)Cc2c-1nc1cc(F)c(C)cc1c2Cn1cc(C2CCCN2C(=O)CO)nn1 (stereo partly drawn) [Payload 61] | 211 | 177.62
33 | CC[C@@]1(O)C(=O)OCc2c1cc1n(c2=O)Cc2c-1nc1cc(F)c(C)cc1c2Cn1cc(CCN)nn1 [Payload 36] | 1010 | 203.63
34 | CC[C@@]1(O)C(=O)OCc2c1cc1n(c2=O)Cc2c-1nc1cc(F)c(C)cc1c2Cn1cc(CN2CCCC(N)C2)nn1 (stereo partly drawn) [Payload 33] | 32.9 | 22.96
35 | CC[C@@]1(O)C(=O)OCc2c1cc1n(c2=O)Cc2c-1nc1cc(F)c(C)cc1c2Cn1cc(C2(NC(=O)CO)CC2)nn1 [Payload 63] | 41 | 44.21
36 | CC[C@@]1(O)C(=O)OCc2c1cc1n(c2=O)Cc2c-1nc1cc(F)c(C)cc1c2Cn1cc(COCCN)nn1 [Payload 55] | 25.2 | 17.60
37 | CC[C@@]1(O)C(=O)OCc2c1cc1n(c2=O)Cc2c-1nc1cc(F)c(C)cc1c2Cn1cc(C(C)NC(=O)CO)nn1 (stereo partly drawn) [Payload 64] | 20.6 | 22.21
38 | CC[C@@]1(O)C(=O)OCc2c1cc1n(c2=O)Cc2c-1nc1cc(F)c(C)cc1c2Cn1cc(CN2CCCC(CO)C2)nn1 (stereo partly drawn) [Payload 56] | 10.1 | 7.05
39 | CC[C@@]1(O)C(=O)OCc2c1cc1n(c2=O)Cc2c-1nc1cc(F)c(C)cc1c2Cn1cc(CNC(=O)CN)nn1 [Payload 32] | 336 | 21.94
40 | CC[C@@]1(O)C(=O)OCc2c1cc1n(c2=O)Cc2c-1nc1cc(F)c(C)cc1c2Cn1nncc1CO [Payload 3] | 107 | 11.97
41 | CC[C@@]1(O)C(=O)OCc2c1cc1n(c2=O)Cc2c-1nc1cc(F)c(C)cc1c2Cn1nncc1CCO [Payload 65] | 134 | 18.50
42 | CC[C@@]1(O)C(=O)OCc2c1cc1n(c2=O)Cc2c-1nc1cc(F)c(C)cc1c2Cn1cc(C(C)N)nn1 (stereo partly drawn) [Payload 50] | 18.6 | 3.72
43 | CC[C@@]1(O)C(=O)OCc2c1cc1n(c2=O)Cc2c-1nc1cc(F)c(C)cc1c2Cn1cc(-c2ccc(NC(=O)CO)cc2)nn1 [Payload 15] | 25.8 | 27.79
44 | CC[C@@]1(O)C(=O)OCc2c1cc1n(c2=O)Cc2c-1nc1cc(F)c(C)cc1c2Cn1cc(C(C)(C)N)nn1 [Payload 51] | 15.3 | 3.05
45 | CC[C@@]1(O)C(=O)OCc2c1cc1n(c2=O)Cc2c-1nc1cc(F)c(C)cc1c2Cn1cc(CNC(=O)CO)nn1 [Payload 7] | 1830 | 203.99
46 | CC[C@@]1(O)C(=O)OCc2c1cc1n(c2=O)Cc2c-1nc1cc(F)c(C)cc1c2Cn1cc(-c2cccnc2N)nn1 [Payload 49] | 8.14 | 1.30
47 | CC[C@@]1(O)C(=O)OCc2c1cc1n(c2=O)Cc2c-1nc1cc(F)c(C)cc1c2Cn1nnc(CO)c1CO [Payload 12] | 374 | 41.69
